Data set [1] addresses T1, 5-HT2B receptor (Homo sapiens, UniProt P41595).
T1 construct: expressed in transfected cells; host or cells: HEK293, stably transfected
Description: cell-based. Type of data set: cell-based. The following applies: HEK293, agonist, Ca2+ flux, HEK293, max dose; read-out: 5-HT2B % Act @ Max Dose. The method, then:
(§1) Functional Assays at 5-HT2A, 5-HT2B, and 5-HT1A. Agonist activity at 5-HT2A, 5-HT2B, 5HT2C and 5-HT1A receptors was determined using a FLIPR Ca^2+ flux assay at WuXi AppTec (Hong Kong) Limited according to their standard protocols. Briefly, stably transfected cells expressing the receptor of interest and Gα15 in the case of 5-HT1A (HEK293 for 5-HT2A and 5-HT2B; CHO cells for 5-HT1A) were grown and plated in a 384 well plate and incubated at 37° C. and 5% CO2 overnight. A solution of 250 mM probenecid in 1 mL FLIPR assay buffer was prepared fresh. This was combined with a fluorescent dye (Fluo-4 Direct™) to make a final assay concentration of 2.5 mM. […] The fluorescent dye was then added to the assay plate along with assay buffer to a final volume of 40 μL. The cell plate was incubated for 50 min at 37° C. and 5% CO2 and placed into the FLIPR Tetra along with the compound plate. 10 μL of references and compounds were then transferred from the compound plate into the cell plate and the fluorescent signal was read.

The target of data set [2] is T2, 5-HT1A receptor (Homo sapiens, UniProt P08908).
T2 construct: expressed in transfected cells; host or cells: CHO cells, stably transfected
T2 sequence (P08908 1-422): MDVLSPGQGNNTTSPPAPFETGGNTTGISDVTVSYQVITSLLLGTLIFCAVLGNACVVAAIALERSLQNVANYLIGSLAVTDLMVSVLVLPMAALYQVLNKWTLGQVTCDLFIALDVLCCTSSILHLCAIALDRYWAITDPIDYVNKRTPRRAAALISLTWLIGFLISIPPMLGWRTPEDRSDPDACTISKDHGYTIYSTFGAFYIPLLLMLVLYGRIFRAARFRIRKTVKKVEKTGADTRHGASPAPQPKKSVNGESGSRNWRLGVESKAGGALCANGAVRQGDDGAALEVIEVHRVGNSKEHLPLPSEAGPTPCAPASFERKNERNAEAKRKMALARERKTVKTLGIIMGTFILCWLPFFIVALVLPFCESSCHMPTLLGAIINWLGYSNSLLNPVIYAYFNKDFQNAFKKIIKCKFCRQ
Description: cell-based. The following applies: CHO, agonist, Ca2+ flux, CHO cells with Gα15, max dose; read-out: 5-HT1A % Act @ Max Dose. The method, then:
as §1

Data set [3] concerns the target T3, 5-HT1B receptor (Homo sapiens, UniProt P28222).
T3 construct: expressed in transfected cells
The data set is described as follows: cAMP accumulation functional assay at 5-HT1B. Type of data set: cell-based. The following applies: agonist, cAMP accumulation, max dose; read-out: 5-HT1B % Act @ Max Dose. The method, then: Functional Assay at 5-HT1B. Agonist activity at 5-HT1B was determined using a CAMP accumulation protocol at WuXi AppTec (Hong Kong) Limited according to their standard protocols. Briefly, stably transfected cells were plated in an OptiPlate-384 well plate, incubated at RT for 60 mins, and cAMP standard solution (800 nM, 10 μL) was added to the blank well. Then, 10 μL detection reagent was added to each well, the plate incubated for 60 mins at RT, and the plate read using En Vision.

Data set [4] has as its target T4, 5-HT2A receptor (Homo sapiens, UniProt P28223). The data set is described as follows: cell-based. Type of data set: cell-based. Particulars: agonist, beta-arrestin recruitment; for EC50: PathHunter, read-out: 5-HT2A Arrestin EC50; for Emax: max dose, read-out: 5-HT2A Arrestin % Act @ Max Dose. The method, then: Arrestin Functional Assay at 5-HT2A. Recruitment of beta-arrestin was determined using a PathHunter assay at Eurofins DiscoverX (Fremont, CA) according to their standard protocols. PathHunter GPCR beta-arrestin assays take advantage of DiscoverX's proprietary Enzyme Fragment Complementation technology. The GPCR is fused in frame with a small enzyme donor fragment ProLink™ (PK) and co-expressed in cells stably expressing a fusion protein of beta-arrestin and the larger, N-terminal deletion mutant of beta-galactosidase. Activation of the GPCR (5-HT2A receptor in this case) stimulates binding of beta-arrestin to the PK-tagged GPCR and forces complementation of the two enzyme fragments, resulting in the formation of an active beta-galactosidase enzyme. This interaction leads to an increase in enzyme activity that can be measured using chemiluminescent PathHunter Detection Reagents. Briefly, PathHunter cells expressing 5-HT2A receptors were seeded in a volume of 20 μL into 384-well plates and incubated at 37° C. for the appropriate time prior to testing. […] Plates were then imaged on a microplate reader and the agonist activity was calculated using the following formula: % Activity=100%×(mean RLU of test sample-mean RLU of vehicle control)/(mean MAX control ligand-mean RLU of vehicle control), where RLU=relative light units.

Data set [5] in a line: in vitro. Particulars: HLM 0.50 mg/mL, NADPH 1 mM, 1 μM compound, pH 7.4, 37° C., 60 min. Type of data set: in vitro ADME, human.
The nature of data set [6]: in vitro. Type of data set: in vitro ADME, mouse. Particulars: MLM (male CD-1) 0.50 mg/mL, NADPH 1 mM, 1 μM compound, pH 7.4, 37° C., 60 min. An excerpt:
MLM Stability Pooled MLM from male CD-1 mice (BIOIVT M00501) were used.

A short description of data set [7]: in vitro. Type of data set: in vitro ADME, rat. Particulars: RLM (male Sprague-Dawley) 0.50 mg/mL, NADPH 1 mM, 1 μM compound, pH 7.4, 37° C., 60 min. An excerpt:
RLM Stability Pooled RLM from male Sprague-Dawley rats (Xenotech R1000) were used.

The target in data set [8] is T4, 5-HT2A receptor. The data set is described as follows: cell-based. Type of data set: cell-based. The arrangement: expressed in transfected cells; host or cells: HEK293, stably transfected. Particulars: for Emax: HEK293, agonist, Ca2+ flux, HEK293, max dose, read-out: 5-HT2A % Act @ Max Dose. The procedure:
as §1

Molecules are shown by their SMILES. Like-named read-outs stand apart in the source and are kept apart here.

T3 sequence (P28222 whole entry): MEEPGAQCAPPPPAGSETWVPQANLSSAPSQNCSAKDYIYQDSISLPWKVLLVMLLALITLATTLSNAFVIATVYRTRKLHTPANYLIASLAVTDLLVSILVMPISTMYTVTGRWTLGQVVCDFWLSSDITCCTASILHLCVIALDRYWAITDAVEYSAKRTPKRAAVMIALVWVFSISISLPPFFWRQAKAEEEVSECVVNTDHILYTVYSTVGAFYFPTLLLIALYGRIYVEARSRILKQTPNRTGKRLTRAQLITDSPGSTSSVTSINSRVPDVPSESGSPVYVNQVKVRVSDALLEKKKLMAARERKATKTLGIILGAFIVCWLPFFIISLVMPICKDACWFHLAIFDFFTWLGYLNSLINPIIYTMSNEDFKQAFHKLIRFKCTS
T4 sequence (P28223 whole entry, the tested form may be a part): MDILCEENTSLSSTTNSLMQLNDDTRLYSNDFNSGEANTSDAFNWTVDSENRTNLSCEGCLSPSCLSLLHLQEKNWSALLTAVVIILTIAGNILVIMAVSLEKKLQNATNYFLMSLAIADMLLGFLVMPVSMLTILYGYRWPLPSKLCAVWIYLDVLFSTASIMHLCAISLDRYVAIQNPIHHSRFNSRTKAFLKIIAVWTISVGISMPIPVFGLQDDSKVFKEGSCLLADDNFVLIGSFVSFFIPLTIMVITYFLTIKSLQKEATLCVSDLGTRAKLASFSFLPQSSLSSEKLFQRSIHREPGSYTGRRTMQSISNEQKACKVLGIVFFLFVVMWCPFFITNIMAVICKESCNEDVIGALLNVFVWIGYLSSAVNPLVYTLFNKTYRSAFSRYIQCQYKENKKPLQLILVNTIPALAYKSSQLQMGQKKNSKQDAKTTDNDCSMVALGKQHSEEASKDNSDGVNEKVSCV
T1 sequence (P41595 whole entry): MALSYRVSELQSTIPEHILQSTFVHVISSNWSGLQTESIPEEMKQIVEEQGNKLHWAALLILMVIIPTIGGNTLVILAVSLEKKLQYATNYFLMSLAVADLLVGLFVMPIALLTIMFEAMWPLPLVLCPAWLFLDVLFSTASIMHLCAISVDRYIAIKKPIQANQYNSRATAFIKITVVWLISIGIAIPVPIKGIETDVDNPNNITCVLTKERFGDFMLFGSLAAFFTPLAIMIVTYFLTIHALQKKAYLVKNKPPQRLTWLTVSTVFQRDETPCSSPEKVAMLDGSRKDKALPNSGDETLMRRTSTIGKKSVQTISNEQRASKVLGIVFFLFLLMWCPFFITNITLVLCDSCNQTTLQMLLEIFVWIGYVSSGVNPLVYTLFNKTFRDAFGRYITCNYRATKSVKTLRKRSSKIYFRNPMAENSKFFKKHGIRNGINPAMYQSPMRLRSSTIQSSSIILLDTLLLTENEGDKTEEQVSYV

For `CCN(CC)C(=O)[C@@H]1C=C2c3cccc4[nH]cc(c34)C[C@H]2N(Cc2ccccc2O)C1` [Compound 16, (6aR,9R)—N,N-diethyl-7-(2-hydroxybenzyl)-4,6,6a,7,8,9-hexahydroindolo[4,3-fg]quinoline-9-carboxamide], the Emax is 26.5% in data set [1]; 22.3% in data set [2]; 90.1% in data set [3]; 47.6% in data set [4]; 62% in data set [8]. The EC50 in data set [4] amounted to 3.96 nM. Further, the entries for the “Intrinsic clearance (Clint)” value in data set [5], in data set [6] and in data set [7] were 285.8 µL/min/mg, 1053.2 µL/min/mg and 616.3 µL/min/mg, respectively. In addition, the “half-life (t1/2)” value in data set [5] came out at 4.9 min; in data set [6], 1.3 min; in data set [7], 2.2 min.
Take `CCN(CC)C(=O)[C@@H]1C=C2c3cccc4[nH]cc(c34)C[C@H]2N(CCc2cccc(OC)c2)C1` [Compound 20, (6aR,9R)—N,N-diethyl-7-(3-methoxyphenethyl)-4,6,6a,7,8,9-hexahydroindolo[4,3-fg]quinoline-9-carboxamide]: the Emax was found to be 3.6% in data set [1]; 3.85% in data set [2]; 34.6% in data set [3]; 83.5% in data set [4]; 77.2% in data set [8]. In data set [4], the EC50 worked out at 1.79 nM. For the same molecule, the entries for the “Intrinsic clearance (Clint)” value in data set [5], in data set [6] and in data set [7] were 649.2 µL/min/mg, 1548.2 µL/min/mg and 1147.6 µL/min/mg, respectively. Also, the figures for the “half-life (t1/2)” value in data set [5], in data set [6] and in data set [7] were 2.1 min, 0.9 min and 1.2 min, respectively.
In the case of `CCN(CC)C(=O)[C@@H]1C=C2c3cccc4[nH]cc(c34)C[C@H]2N(CCc2ccc(OC)cc2)C1` [Compound 21, (6aR,9R)—N,N-diethyl-7-(4-methoxyphenethyl)-4,6,6a,7,8,9-hexahydroindolo[4,3-fg]quinoline-9-carboxamide], the Emax in data set [1] worked out at 1.73%; in data set [2] it was 8.2%; in data set [3], 79.1%; in data set [4], 93.7%; in data set [8] it was 51.2%. Further, in data set [4], the EC50 came out at 5.85 nM. Also, the “Intrinsic clearance (Clint)” value came out at 367.7 µL/min/mg in data set [5], 717.4 µL/min/mg in data set [6] and 323.2 µL/min/mg in data set [7]. The results for the “half-life (t1/2)” value in data set [5], in data set [6] and in data set [7] were 3.8 min, 1.9 min and 4.3 min, respectively.
Take `C[C@H]1C[C@H](C)N1C(=O)[C@@H]1C=C2c3cccc4[nH]cc(c34)C[C@H]2N(CCCF)C1` [Compound 26, ((2S,4S)-2,4-dimethylazetidin-1-yl)((6aR,9R)-7-(3-fluoropropyl)-4,6,6a,7,8,9-hexahydroindolo[4,3-fg]quinolin-9-yl)methanone]: the Emax in data set [1] is 101%; in data set [2], 97.9%; in data set [3] it was 77.2%; in data set [8], 83.2%.
The matching figures for `C=CCN1C[C@H](C(=O)N2[C@@H](C)C[C@@H]2C)C=C2c3cccc4[nH]cc(c34)C[C@H]21` [Compound 27, ((6aR,9R)-7-allyl-4,6,6a,7,8,9-hexahydroindolo[4,3-fg]quinolin-9-yl)((2S,4S)-2,4-dimethylazetidin-1-yl)methanone]: 96%, 90.8%, 96.9% and 81.1%.
For `CN1C[C@H](C(=O)N(CCF)CCF)C=C2c3cccc4[nH]cc(c34)C[C@H]21` [Compound 38, (6aR,9R)—N,N-bis(2-fluoroethyl)-7-methyl-4,6,6a,7,8,9-hexahydroindolo[4,3-fg]quinoline-9-carboxamide] the same measures were 28.1%, 90.5%, 94.7% and 93.4%.
For `CCN(CC)C(=O)[C@@H]1C=C2c3cccc4[nH]cc(c34)C[C@H]2N(CCF)C1` [Compound 39, (6aR,9R)—N,N-diethyl-7-(2-fluoroethyl)-4,6,6a,7,8,9-hexahydroindolo[4,3-fg]quinoline-9-carboxamide] the same measures were 85.5%, 91.2%, 99% and 95.5%.
For `CC[C@@H](C)NC(=O)[C@@H]1C=C2c3cccc4[nH]cc(c34)C[C@H]2N(CCC(F)(F)F)C1` [Compound 40, (6aR,9R)—N—((R)-sec-butyl)-7-(3,3,3-trifluoropropyl)-4,6,6a,7,8,9-hexahydroindolo[4,3-fg]quinoline-9-carboxamide], the Emax in data set [1] worked out at 8.46%; in data set [2], 22.3%; in data set [3], 62.1%; in data set [8] it was 45.1%. In addition, the “selectivity for 5-HT2A over the other serotonin receptors tested” value in data set [8] (functional agonist activity) is on record as “highly selective for 5-HT2A”.
As for `CCN(CC)C(=O)[C@@H]1C=C2c3cccc4[nH]c(Br)c(c34)C[C@H]2N(CCCF)C1` [Compound 41, (6aR,9R)-5-bromo-N,N-diethyl-7-(3-fluoropropyl)-4,6,6a,7,8,9-hexahydroindolo[4,3-fg]quinoline-9-carboxamide], the Emax was found to be 84.5% in data set [1], 39.8% in data set [2], 61.5% in data set [3] and 75.4% in data set [8].
For `CCCN1C[C@H](C(=O)N[C@H](C)CC)C=C2c3cccc4[nH]c(Br)c(c34)C[C@H]21` [Compound 46, (6aR,9R)-5-bromo-N—((R)-sec-butyl)-7-propyl-4,6,6a,7,8,9-hexahydroindolo[4,3-fg]quinoline-9-carboxamide] the same measures were 79%, 69.5%, 78.8% and 69.5%.
The matching figures for `CCCN1C[C@H](C(=O)N2[C@@H](C)C[C@@H]2C)C=C2c3cccc4[nH]c(Br)c(c34)C[C@H]21` [Compound 47, ((6aR,9R)-5-bromo-7-propyl-4,6,6a,7,8,9-hexahydroindolo[4,3-fg]quinolin-9-yl)((2S,4S)-2,4-dimethylazetidin-1-yl)methanone]: 87%, 62.1%, 76.2% and 57%.

The values above are taken from patent US20260317319A1, “NOVEL ERGOLINES AND METHODS OF TREATING MOOD DISORDERS” (Gilgamesh Pharma Inc., priority 2023, published 2026).
